Active and inactive are the calls of the source. No cut-off for these calls is given here. Residues, ends and D or L forms follow the SMILES beside them.
How the values were obtained:
[1] = species: Rattus norvegicus; experiment: Induction of magnesium accumulation in rat adipocyte plasma membrane vesicles assessed as increase of magnesium level per gram of protein per 30 mins at 5 x 10^-8 M by fluorescence assay; type: functional, cell membranes
[2] = species: Rattus norvegicus; experiment: Induction of magnesium accumulation in rat adipocyte plasma membrane vesicles assessed as increase of intravesicular magnesium level per 30 mins at 5 x 10^-8 M by fluorescence assay; type: functional, cell membranes
[3] = species: Rattus norvegicus; experiment: Induction of magnesium accumulation in rat adipocyte plasma membrane vesicles assessed as increase of intravesicular magnesium level per 30 mins at 1 x 10^-5 M by fluorescence assay; type: functional, cell membranes
[4] = species: Rattus norvegicus; experiment: Induction of magnesium accumulation in rat adipocyte plasma membrane vesicles assessed as increase of magnesium level per gram of protein per 30 mins at 1 x 10^-5 M by fluorescence assay; type: functional, cell membranes
[5] = test system: Lipid bilayer; experiment: Lipolytic activity in isolated rat adipocytes assessed as fatty acid release at 0.5 to 100 nmol/ml
[6] = species: Rattus norvegicus; experiment: Induction of magnesium accumulation in rat adipocyte plasma membrane vesicles assessed as increase of intravesicular magnesium level per 30 mins at 1 x 10^-5 M by fluorescence assay in presence of beta-adrenergic antagonist propranolol; type: functional, cell membranes
[7] = species: Rattus norvegicus; experiment: Induction of magnesium accumulation in rat adipocyte plasma membrane vesicles assessed as increase of magnesium level per gram of protein per 30 mins at 1 x 10^-5 M by fluorescence assay in presence of alpha-adrenergic antagonist phentolamine; type: functional, cell membranes
[8] = species: Rattus norvegicus; experiment: Induction of magnesium accumulation in rat adipocyte plasma membrane vesicles assessed as increase of intravesicular magnesium level per 30 mins at 1 x 10^-5 M by fluorescence assay in presence of alpha-adrenergic antagonist phentolamine; type: functional, cell membranes
[9] = species: Rattus norvegicus; experiment: Induction of magnesium accumulation in rat adipocyte plasma membrane vesicles assessed as increase of magnesium level per gram of protein per 30 mins at 1 x 10^-5 M by fluorescence assay in presence of beta-adrenergic antagonist propranolol; type: functional, cell membranes
[10] = species: Rattus norvegicus; experiment: Induction of magnesium accumulation in rat adipocyte plasma membrane vesicles assessed as increase of magnesium level per gram of protein per 30 mins at 2 x 10^-4 M by fluorescence assay; type: functional, cell membranes
[11] = species: Rattus norvegicus; experiment: Induction of magnesium accumulation in rat adipocyte plasma membrane vesicles assessed as increase of intravesicular magnesium level per 30 mins at 2 x 10^-4 M by fluorescence assay; type: functional, cell membranes

| Compound | Activity [1] [µmol] | Activity [2] [mM] | Activity [3] [mM] | Activity [4] [µmol] | Activity [5] | other results |
| --- | --- | --- | --- | --- | --- | --- |
| CSCC[C@H](NC(=O)[C@H](CO)NC(=O)[C@H](Cc1ccc(O)cc1)NC(=O)[C@@H](N)CO)C(=O)N[C@@H](CCC(=O)O)C(=O)N[C@@H](Cc1cnc[nH]1)C(=O)N[C@@H](Cc1ccccc1)C(=O)N[C@@H](CCCNC(=N)N)C(=O)N[C@@H](Cc1c[nH]c2ccccc12)C(=O)NCC(=O)N[C@@H](CCCCN)C(=O)N1CCC[C@H]1C(=O)N[C@H](C(=O)NCC(=O)N[C@@H](CCCCN)C(=O)N[C@@H](CCCCN)C(=O)N[C@@H](CCCNC(=N)N)C(=O)N[C@@H](CCCNC(=N)N)C(=O)N1CCC[C@H]1C(=O)N[C@H](C(=O)N[C@@H](CCCCN)C(=O)N[C@H](C(=O)N[C@@H](Cc1ccc(O)cc1)C(=O)N1CCC[C@H]1C(=O)N[C@@H](CC(N)=O)C(=O)NCC(=O)N[C@@H](C)C(=O)N[C@@H](CCC(=O)O)C(=O)N[C@@H](CC(=O)O)C(=O)N[C@@H](CCC(=O)O)C(=O)N[C@@H](CC(C)C)C(=O)N[C@@H](C)C(=O)N[C@@H](CCC(=O)O)C(=O)N[C@@H](C)C(=O)N[C@@H](Cc1ccccc1)C(=O)N1CCC[C@H]1C(=O)N[C@@H](CC(C)C)C(=O)N[C@@H](CCC(=O)O)C(=O)N[C@@H](Cc1ccccc1)C(=O)O)C(C)C)C(C)C)C(C)C (H-SYSMEHFRWGKPVGKKRRPVKVYPNGAEDELAEAFPLEF-OH) | 9.78 | 0.94 |  |  |  |  |
| CC(C)NCC(O)c1ccc(O)c(O)c1 (stereo not drawn) |  |  | 0.3 | 3.12 |  |  |
| CC(C)[C@H](NC(=O)[C@H](CCCCN)NC(=O)[C@@H](NC(=O)[C@@H]1CCCN1C(=O)[C@H](CCCNC(=N)N)NC(=O)[C@H](CCCNC(=N)N)NC(=O)[C@H](CCCCN)NC(=O)[C@H](CCCCN)NC(=O)CNC(=O)[C@@H](NC(=O)[C@@H]1CCCN1C(=O)[C@@H](N)CCCCN)C(C)C)C(C)C)C(=O)N[C@@H](Cc1ccc(O)cc1)C(=O)N1CCC[C@H]1C(=O)O (H-KPVGKKRRPVKVYP-OH) | 8.32 | 0.8 |  |  | inactive |  |
| CSCC[C@H](NC(=O)[C@H](CO)NC(=O)[C@H](Cc1ccc(O)cc1)NC(=O)[C@@H](N)CO)C(=O)N[C@@H](CCC(=O)O)C(=O)N[C@@H](Cc1cnc[nH]1)C(=O)N[C@@H](Cc1ccccc1)C(=O)N[C@@H](CCCNC(=N)N)C(=O)N[C@@H](Cc1c[nH]c2ccccc12)C(=O)NCC(=O)N[C@@H](CCCCN)C(=O)N1CCC[C@H]1C(=O)N[C@H](C(=O)NCC(=O)N[C@@H](CCCCN)C(=O)N[C@@H](CCCCN)C(=O)N[C@@H](CCCNC(=N)N)C(=O)N[C@@H](CCCNC(=N)N)C(=O)N1CCC[C@H]1C(=O)N[C@H](C(=O)O)C(C)C)C(C)C (H-SYSMEHFRWGKPVGKKRRPV-OH) | 3.74 | 0.36 |  |  | Active |  |
| NC[C@H](O)c1ccc(O)c(O)c1 |  |  | 1.3 | 13.5 |  | Activity [6]: 0.85 mM; Activity [7]: 3.85 µmol; Activity [8]: 0.37 mM; Activity [9]: 8.84 µmol |
| COc1ccc(OC)c(C(O)C(C)N)c1 (stereo not drawn) |  |  |  |  |  | Activity [10]: 11.1 µmol; Activity [11]: 1.07 mM |

— ChEMBL document CHEMBL3271967, “Evidence for separate peptide sequences related to the lipolytic and magnesium-accumulating activities of ACTH. Analogy with adrenergic receptors” (J Med Chem, 1977)
